Experimental findings from US9938525B2, “Compositions and methods for selective delivery of oligonucleotide molecules to cell types” (nLife Therapeutics, S.L., priority 2012, dated 2018) are described below.

The target in one data set is T1, human 5HT1A receptor (Homo sapiens, UniProt P08908).
T1 construct: expressed in transfected cells; host or cells: CHO
T1 sequence (P08908 1-422): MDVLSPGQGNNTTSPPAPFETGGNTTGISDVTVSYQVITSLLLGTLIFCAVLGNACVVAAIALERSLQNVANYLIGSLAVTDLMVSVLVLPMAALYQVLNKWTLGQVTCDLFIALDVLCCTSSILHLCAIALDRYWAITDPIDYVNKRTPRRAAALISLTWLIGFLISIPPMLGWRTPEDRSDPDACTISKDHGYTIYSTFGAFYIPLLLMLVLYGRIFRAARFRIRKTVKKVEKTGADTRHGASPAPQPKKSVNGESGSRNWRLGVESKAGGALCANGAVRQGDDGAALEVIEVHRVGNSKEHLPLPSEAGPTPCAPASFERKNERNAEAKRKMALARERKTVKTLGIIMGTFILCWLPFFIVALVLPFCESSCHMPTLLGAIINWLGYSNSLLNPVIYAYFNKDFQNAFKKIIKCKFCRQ
The data set can be described thus: Binding to 5HT1A: displacement of 3H-8-OH-DPAT in CHO cells overexpressing human 5HT1A receptor.

A further data set addresses T2, 5HT3 (Homo sapiens, UniProt P46098).
T2 construct: expressed in transfected cells; host or cells: HEK (HEK-5HT3)
T2 sequence (P46098 24-478): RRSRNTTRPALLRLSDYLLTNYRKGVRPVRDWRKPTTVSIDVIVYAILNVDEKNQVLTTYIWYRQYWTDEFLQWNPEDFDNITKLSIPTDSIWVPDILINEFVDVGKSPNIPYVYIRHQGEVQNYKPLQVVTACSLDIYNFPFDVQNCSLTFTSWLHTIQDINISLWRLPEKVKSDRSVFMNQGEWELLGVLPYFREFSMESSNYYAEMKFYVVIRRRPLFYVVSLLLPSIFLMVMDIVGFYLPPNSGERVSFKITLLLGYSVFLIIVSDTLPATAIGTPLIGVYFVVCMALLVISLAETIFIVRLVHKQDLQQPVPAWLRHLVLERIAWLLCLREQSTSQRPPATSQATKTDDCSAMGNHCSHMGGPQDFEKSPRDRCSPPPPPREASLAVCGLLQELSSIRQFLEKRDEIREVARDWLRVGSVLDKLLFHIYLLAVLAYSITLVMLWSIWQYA
The data set can be described thus: Binding to 5HT3: displacement of 3H-GR65630 in HEK-5HT3. As to conditions: displacement of 3H-GR65630 (0.5 nM), HEK-5HT3, 3 ug of protein per well. The protocol: FIG. 6. Binding of 1319 to 5HT3. Displacement of 3H-GR65630 (0.5 nM). Data are presented as mean±SD, n=4 from one experiment. Kd of GR65630 was determined from a saturation assay.
Displacement of 3H-GR65630 (0.5 nM) with increasing concentrations of 1319 (from 0.1 nM to 10 uM), Lerisetron-C6-acyl and not derivatized Lerisetron (from 0.1 nM to 30 uM), in HEK-5HT3: 3 ug of protein per well is shown in Table 11.
For orientation: In a radioligand displacement assay an active substance lowers the binding of a labelled ligand.

For a further data set, the system named is Ataxin-I mRNA. The data set can be described thus: Knockdown of Ataxin I in Purkinje cells of the cerebellum (in situ hybridization, optical density). The format is in vivo, mouse. Conditions: C57/B16 mice, intranasal 4 mg/kg/day for four consecutive days, 24 hours after last administration; ± s.e.m. The source says: FIG. 5. Microphotographs of sagittal cerebellum sections labeled with a probe for Ataxin-1. A) and B) Arrows indicate the Purkinje cells layer, ML: molecular layer, GL: granular layer. A: example of animal treated with PBS, B: example of animal treated with 5-nonyloxytryptamine oxalate conjugated to a siRNA against mRNA for Ataxin-I (NP-1297). C: Quantification of optical density (ImageJ) in the Purkinje cells layer in arbitrary units (O.D. (a.u.)) normalized against PBS showing a significant decrease (48%±5 s.e.m.) in animals treated with NP-1297 (t test, *p<0.02).
5-HT1B receptors are expressed in the Purkinje cells of the cerebellum and using the agonist 5-nonyloxytryptamine oxalate for these receptors, conjugated to a siRNA against mRNA for Ataxin-I, we knockdown this protein only in Purkinje cells. Ataxin-1-siRNA sequence (Lee et al., Nat Neurosci 11, 1137-1139 (2008))
For this, five C57/B16 wild type mice were intranasally administered with the conjugated molecule at a concentration of 4 mg/kg/day for four consecutive days and five animals of the same strain were treated with PBS as a control; 24 hours after last administration animals were sacrificed and the brain was processed for in situ hybridization with colorimetric detection. A probe 45 nucleotides long complementary to mouse Ataxin-I mRNA and labeled with digoxigenin at both ends (5′ and 3′) was used. […]

Protocol for human 5HT1A receptor: 10 ug of protein per well preincubated 15 min and incubated 60 min RT.

Consider `Nc1ccc(CCN2CCN(c3cccc(C(F)(F)F)c3)CC2)cc1` [LY-165,163, 1-[2-(4-aminophenyl)ethyl]-4-(3-trifluoromethylphenyl)-piperazine], for which the IC50 (as a rule, the concentration needed to halve the response being measured) at human 5HT1A receptor was 1.1 nM.

Turning to `c1ccc(Cn2c(N3CCNCC3)nc3ccccc32)cc1` [Lerisetron, 1-benzyl-2-piperazin-1-yl-1H-benzimidazole], on 5HT3, the IC50 was found to be 7 nM.

Take “NP-1297: 5-nonyloxytryptamine oxalate conjugated to a siRNA against mRNA for Ataxin-I (SEQ ID NO: 9/10) (chain 1 GAUCUAACGUGGGCAAGUATT; chain 2 UACUUGCCCACGUUAGAUCTT; 5-nonyloxytryptamine conjugated, attachment position not given here)”: the “Decrease of optical density (Ataxin-1 probe) in the Purkinje cells layer normalized against PBS” value in the data set with Ataxin-I mRNA was 48%±5.
